As a reminder, the EC50 is the concentration needed to bring the measured effect to its halfway point.

SMILES strings stand for the structures.

The experiment concerns HCV 1b-377-neo replicon cells. The experiment is described as follows: HCV replicon assay (HCV 1b-377-neo replicon cells). It is filed as cell-based, Hepatitis C virus genotype 1b. Also noted: EC50 range against HCV 1b (Range): scale not given here. The settings on record: for EC50: Hepatitis C virus, read-out: EC50 range against HCV 1b (Range). An outline of the steps: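 HCV genotype 1b (1b-377-neo) replicon cells, run as a validated replicon assay; parallel testing in replicon cells carrying the NS5A Y2065H resistance mutation.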
For orientation: Replicon systems follow genome replication, usually without infectious particles.

Turning to `COC(=O)N[C@H](C(=O)N1CCC[C@H]1c1ncc(-c2ccc(-c3ccc(-c4cnc([C@@H]5CCCN5C(=O)[C@@H](NC(=NC#N)N(C)C)C(C)C)[nH]4)cc3)cc2)[nH]1)C(C)C` [cj-17, methyl((1S)-1-(((2S)-2-(5-(4′-(2-((2S)-1-(N-(cyano(dimethyl)carbamimidoyl)-L-valyl)-2-pyrrolidinyl)-1H-imidazol-5-yl)-4-biphenylyl)-1H-imidazol-2-yl)-1-pyrrolidinyl)carbonyl)-2-methylpropyl)carbamate], the 50% effective concentration (EC50) lay within 0.01 to 0.999 nM. Same read-out and setting: the value for `CN(C)[C@@H](C(=O)N1CCC[C@H]1c1ncc(-c2ccc(-c3ccc(-c4cnc([C@@H]5CCCN5C(=O)[C@@H](c5ccccc5)N(C)C)[nH]4)cn3)cc2)[nH]1)c1ccccc1` [Example 132, (1R)-2-((2S)-2-(5-(6-(4-(2-((2S)-1-((2R)-2-(dimethylamino)-2-phenylacetyl)-2-pyrrolidinyl)-1H-imidazol-5-yl)phenyl)-3-pyridinyl)-1H-imidazol-2-yl)-1-pyrrolidinyl)-N,N-dimethyl-2-oxo-1-phenylethanamine] was 0.01 to 0.999 nM.

In the case of `COC(=O)N[C@H](C(=O)N1[C@H](c2ncc(-c3ccc(-c4ccc(-c5cnc([C@@H]6C[C@@H]7C[C@@H]7N6C(=O)[C@@H](NC(=O)OC)C(C)C)[nH]5)cc4)cc3)[nH]2)C[C@@H]2C[C@@H]21)C(C)C` [Example M122, methyl((1S)-1-(((1S,3S,5S)-3-(5-(4′-(2-((1S,3S,5S)-2-((2S)-2-((methoxycarbonyl)amino)-3-methylbutanoyl)-2-azabicyclo[3.1.0]hex-3-yl)-1H-imidazol-5-yl)-4-biphenylyl)-1H-imidazol-2-yl)-2-azabicyclo[3.1.0]hex-2-yl)carbonyl)-2-methylpropyl)carbamate], the EC50 is 1 to 99 nM.

Turning to `CCN(CC)[C@H](C)C(=O)N1CCC[C@H]1c1ncc(-c2cnc(-c3ccc(-c4[nH]c([C@@H]5CCCN5C(=O)[C@H](C)N(CC)CC)nc4C(F)(F)F)cc3)nc2)[nH]1` [Example J51, (2R)-1-((2S)-2-(5-(4-(5-(2-((2S)-1-((2R)-2-(diethyl-amino)prop-anoyl)-2-pyrrolidinyl)-1H-imidazol-5-yl)-2-pyrimi-dinyl)phenyl)-4-(trifluoromethyl)-1H-imida-zol-2-yl)-1-pyrrolidinyl)-N,N-dieth-yl-1-oxo-2-propanamine], the half-maximal effective concentration (EC50) lay in the range of 1 to 99 nM.

As to `COC(=O)N[C@@H](C(=O)N[C@@H](C)c1ncc(-c2ccc(-c3ccc(-c4cnc([C@@H]5CCCN5C(=O)[C@H](NC(=O)OC)c5ccccc5)[nH]4)cn3)cc2)[nH]1)c1ccccc1` [Example 152j-12, methyl ((1R)-2-((2S)-2-(5-(6-(4-(2-((1S)-1-(((2R)-2-((methoxycarbonyl)a-mino)-2-phenyl-acetyl)amino)eth-yl)-1H-imidazol-5-yl)phenyl)-3-pyridinyl)-1H-imidazol-2-yl)-1-pyrrolidinyl)-2-oxo-1-phenylethyl)carbamate], the concentration giving a half-maximal response (EC50) lay in the range of 0.01 to 0.999 nM.

For the compound `COC(=O)N[C@H](C(=O)N1CCC[C@H]1c1ncc(-c2ccc(-c3ccc(-c4cnc([C@@H]5CCCN5C(=O)[C@@H](NC(=O)OC)C(C)C)[nH]4)cc3C(N)=O)cc2)[nH]1)C(C)C` [Example M118, methyl((1S)-1-(((2S)-2-(5-(2′-carbamoyl-4′-(2-((2S)-1-((2S)-2-((methoxycarbonyl)amino)-3-methylbutanoyl)-2-pyrrolidinyl)-1H-imidazol-5-yl)-4-biphenylyl)-1H-imidazol-2-yl)-1-pyrrolidinyl)carbonyl)-2-methylpropyl)carbamate], the “EC50 range against HCV 1b (Range)” value was “>A”. As for `Cc1cc(-c2cnc([C@@H]3CCCN3C(=O)[C@@H](c3ccccc3)N(C)C)[nH]2)ccc1-c1ccc(-c2cnc([C@@H]3CCCN3C(=O)[C@@H](c3ccccc3)N(C)C)[nH]2)cc1C` [Example 121, (1R,1′R)-2,2′-((2,2′-dimethyl-4,4′-biphenyldiyl)bis(1H-imidazole-5,2-diyl(2S)-2,1-pyrrolidinediyl))bis(N,N-dimethyl-2-oxo-1-phenylethanamine)], the EC50 fell in the range of 0.01 to 0.999 nM. The same measure, in the same setting: the value for `COC(=O)N[C@@H](C(=O)N1CCC[C@H]1c1ncc(-c2ccc(-c3ccc(-c4cnc([C@@H]5CCCN5C(=O)[C@H](NC(=O)OC)c5ccccc5)[nH]4)cn3)nc2)[nH]1)c1ccccc1` [Example 145, dimethyl(2,2′-bipyridine-5,5′-diylbis(1H-imidazole-5,2-diyl(2S)-2,1-pyrrolidinediyl((1R)-2-oxo-1-phenyl-2,1-ethanediyl)))biscarbamate] was 0.01 to 0.999 nM; that for `COC(=O)N[C@@H](C(=O)N1CCC[C@H]1c1ncc(-c2ccc(-c3ccc(-c4cnc([C@@H]5CCCN5C(=O)[C@H](NC(=O)OC)c5ccccc5)[nH]4)cn3)cc2)[nH]1)c1ccccc1` [Example 134, methyl ((1R)-2-((2S)-2-(5-(6-(4-(2-((2S)-1-((2R)-2-((methoxycarbonyl)amino)-2-phenylacetyl)-2-pyrrolidinyl)-1H-imidazol-5-yl)phenyl)-3-pyridinyl)-1H-imidazol-2-yl)-1-pyrrolidinyl)-2-oxo-1-phenylethyl)carbamate] was 0.01 to 0.999 nM; that for `COC(=O)N[C@@H](C(=O)N1CCC[C@H]1c1ncc(-c2ccc(-c3ccc(-c4cnc([C@@H]5CCCN5C(=O)N5CCOCC5)[nH]4)cn3)cc2)[nH]1)c1ccccc1` [Example 144, methyl((1R)-2-((2S)-2-(5-(4-(5-(2-((2S)-1-(4-morpholinylcarbonyl)-2-pyrrolidinyl)-1H-imidazol-5-yl)-2-pyridinyl)phenyl)-1H-imidazol-2-yl)-1-pyrrolidinyl)-2-oxo-1-phenylethyl)carbamate] was 0.01 to 0.999 nM. As to `CCN(CC)[C@@H](C(=O)N1CCC[C@H]1c1ncc(-c2ccc(-c3ncc(-c4c[nH]c([C@@H]5CCCN5C(=O)[C@@H](NC(=O)OC)C(C)C)n4)cn3)cc2)[nH]1)c1ccccc1` [Example D76, methyl ((1S)-1-(((2S)-2-(5-(2-(4-(2-((2S)-1-((2R)-2-(diethyl-amino)-2-phenyl-acetyl)-2-pyrroli-dinyl)-1H-imidazol-5-yl)phenyl)-5-pyrimi-dinyl)-1H-imida-zol-2-yl)-1-pyrroli-dinyl)carbon-yl)-2-methylpro-pyl)carba-mate], the half-maximal effective concentration (EC50) was 0.01 to 0.999 nM. Still for that read-out and setting: the value for `COC(=O)N[C@@H](C(=O)N1CCC[C@H]1c1ncc(-c2ccc(-c3cnc(-c4cnc([C@@H]5CCCN5C(=O)[C@H](NC(=O)OC)c5ccccc5)[nH]4)cn3)cc2)[nH]1)c1ccccc1` [Example 152j-8, methyl ((1R)-2-((2S)-2-(5-(5-(4-(2-((2S)-1-((2R)-2-((methoxycarbonyl)a-mino)-2-phenylacetyl)-2-pyrrolidinyl)-1H-imidazol-5-yl)phenyl)-2-pyrazinyl)-1H-imidazol-2-yl)-1-pyrrolidinyl)-2-oxo-1-phenylethyl)carbamate] was 0.01 to 0.999 nM; that for `COC(=O)N[C@H](C(=O)N1CCC[C@H]1c1ncc(-c2ccc(-c3ccc(-c4cnc([C@@H]5CCCN5C(=O)[C@@H](Nc5noc(N)n5)C(C)C)[nH]4)cc3)cc2)[nH]1)C(C)C` [cj-16, methyl((1S)-1-(((2S)-2-(5-(4′-(2-((2S)-1-(N-(5-amino-1,2,4-oxadiazol-3-yl)-L-valyl)-2-pyrrolidinyl)-1H-imidazol-5-yl)-4-biphenylyl)-1H-imidazol-2-yl)-1-pyrrolidinyl)carbonyl)-2-methylpropyl)carbamate] was 0.01 to 0.999 nM. For `COC(=O)N[C@@H](C(=O)N[C@@H](C)c1ncc(-c2ccc(-c3ccc(-c4cnc([C@@H]5CCCN5C(=O)[C@H](NC(=O)OC)c5ccccc5)[nH]4)nn3)cc2)[nH]1)c1ccccc1` [Example 152j-14, methyl ((1R)-2-((2S)-2-(5-(6-(4-(2-((1S)-1-(((2R)-2-((methoxycarbonyl)a-mino)-2-phenyl-acetyl)amino)eth-yl)-1H-imidazol-5-yl)phenyl)-3-pyridazinyl)-1H-imidazol-2-yl)-1-pyrrolidinyl)-2-oxo-1-phenylethyl)carbamate], the EC50 was 1 to 99 nM. With `COC(=O)N[C@@H](C(=O)N(C)[C@@H](C)c1ncc(-c2ccc(-c3ccc(-c4cnc([C@@H]5CCCN5C(=O)[C@@H](c5ccccc5)N(C)C)[nH]4)cc3)cc2)[nH]1)c1ccccc1` [Example 131.1-1, methyl((1R)-2-(((1S)-1-(5-(4′-(2-((2S)-1-((2R)-2-(dimethylamino)-2-phenylacetyl)-2-pyrrolidinyl)-1H-imidazol-5-yl)-4-biphenylyl)-1H-imidazol-2-yl)ethyl)(methyl)amino)-2-oxo-1-phenylethyl)carbamate], the EC50 lay in the range of 0.01 to 0.999 nM. The same measure, in the same setting: the figure for `COC(=O)N[C@@H](C(=O)N1CCC[C@H]1c1ncc(-c2ccc(-c3ccc(-c4cnc([C@@H]5CCCN5C(=O)Cc5ccccc5)[nH]4)cc3)cc2)[nH]1)c1ccccc1` [Example 28, methyl((1R)-2-oxo-1-phenyl-2-((2S)-2-(5-(4′-(2-((2S)-1-(phenylacetyl)-2-pyrrolidinyl)-1H-imidazol-5-yl)-4-biphenylyl)-1H-imidazol-2-yl)-1-pyrrolidinyl)ethyl)carbamate] is 1 to 99 nM; for `COC(=O)N[C@@H](C(=O)N[C@@H](C)c1ncc(-c2ccc(-c3cnc(-c4cnc([C@@H]5CCCN5C(=O)[C@H](NC(=O)OC)c5ccccc5)[nH]4)cn3)cc2)[nH]1)c1ccccc1` [Example 152j-28] it is 0.01 to 0.999 nM. Still for that read-out and setting: the figure for `CN(C)[C@@H](C(=O)N1CCC[C@H]1c1ncc(-c2ccc(-c3ncc(-c4cnc([C@@H]5CCCN5C(=O)[C@@H](c5ccccc5)N(C)C)[nH]4)cn3)cc2)[nH]1)c1ccccc1` [Example 152j-1, (1R)-2-((2S)-2-(5-(2-(4-(2-((2S)-1-((2R)-2-(dimethylamino)-2-phenylacetyl)-2-pyrrolidinyl)-1H-imidazol-5-yl)phenyl)-5-pyrimidinyl)-1H-imidazol-2-yl)-1-pyrrolidinyl)-N,N-dimethyl-2-oxo-1-phenylethanamine] is 1 to 99 nM; for `COC(=O)N[C@H](C(=O)N1CCCC1c1ncc(-c2cc(C)c(-c3c(C)cc(-c4cnc([C@@H]5CCCN5C(=O)[C@@H](NC(=O)OC)C(C)C)[nH]4)cc3C)c(C)c2)[nH]1)C(C)C` (stereo partly shown) [Example F71] it is 0.01 to 0.999 nM.

(Values after US7659270B2, “Hepatitis C virus inhibitors” (Bristol-Myers Squibb Company, priority 2006, dated 2010).)
